Data set [1] addresses T1, MMP-2 (Homo sapiens, UniProt P08253).
T1 construct: the catalytic domains of the corresponding MMP were incubated in triplicate; purchased Enzo Life Science International, Inc
Also noted: method as in PMID 30629065. The following applies: cited from earlier work.

Data set [2] addresses T2, MMP-10 (Homo sapiens, UniProt P09238).
T2 construct: the catalytic domains of the corresponding MMP were incubated in triplicate; purchased Enzo Life Science International, Inc
More on the design: method as in PMID 30629065. The following applies: panel of MMPs; cited from earlier work.

Data set [3] concerns the target T3, MMP-12 (Homo sapiens, UniProt P39900).
T3 construct: the catalytic domains of the corresponding MMP were incubated in triplicate; purchased Enzo Life Science International, Inc
Also noted: method as in PMID 30629065. The following applies: panel of MMPs; cited from earlier work.

Data set [4] has as its target T4, MMP-3 (Homo sapiens, UniProt P08254).
T4 construct: the catalytic domains of the corresponding MMP were incubated in triplicate; purchased Enzo Life Science International, Inc
More on the design: method as in PMID 30629065. The following applies: panel of MMPs; cited from earlier work.

The target in data set [5] is T5, MMP-13 (Homo sapiens, UniProt P45452).
T5 construct: the catalytic domains of the corresponding MMP were incubated in triplicate; purchased Enzo Life Science International, Inc
More on the design: method as in PMID 30629065. The following applies: cited from earlier work.

Data set [6] addresses T6, MMP-1 (Homo sapiens, UniProt P03956).
T6 construct: the catalytic domains of the corresponding MMP were incubated in triplicate; purchased Enzo Life Science International, Inc
T6 sequence (P03956 100-269 limits assumed): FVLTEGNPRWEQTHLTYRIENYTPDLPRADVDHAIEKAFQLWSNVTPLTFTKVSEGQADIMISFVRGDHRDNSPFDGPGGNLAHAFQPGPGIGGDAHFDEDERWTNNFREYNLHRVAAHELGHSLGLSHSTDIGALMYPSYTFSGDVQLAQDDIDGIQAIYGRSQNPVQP
More on the design: method as in PMID 30629065. Conditions: panel of MMPs; cited from earlier work.

The target of data set [7] is T7, MMP-14 (Homo sapiens, UniProt P50281).
T7 construct: the catalytic domains of the corresponding MMP were incubated in triplicate; purchased Enzo Life Science International, Inc
More on the design: method as in PMID 30629065. Conditions: panel of MMPs; cited from earlier work.

Data set [8] concerns the target T8, MMP-8 (Homo sapiens, UniProt P22894).
T8 construct: the catalytic domains of the corresponding MMP were incubated in triplicate; purchased Enzo Life Science International, Inc
Also noted: method as in PMID 30629065. The following applies: panel of MMPs; cited from earlier work.

Data set [9] is described as follows: Thermodynamic solubility (shake flask method). It is filed as physicochemical. The following applies: phosphate buffer, aqueous buffer, thermodynamic from solid; PBS pH 7.4, shake flask, room temperature; read-out: Experimental Water Solubility LogS (converted). As for the experimental part:
The samples were sonicated for 10 min and shaken overnight at 800 rpm (FB15013 TopMix, Fischer Scientific, Waltham, MA, USA) at room temperature. A first phase separation of supernatant and undissolved solid was performed by centrifugation at 5000 rpm for 20 min (Biofuge primo R). The supernatant was then transferred into Eppendorf tubes for a second centrifugation. An adequate dilution was made using the particle-free supernatant and the concentration quantified by LC-HRMS using a 4-point calibration curve (Agilent 1260 Infinity II).
PART A. Calibration curves of compounds for solubility
9e, 10a-e), 4-points calibration curves were made for each compound. Calibrations curves were obtained using four different concentrations of the corresponding compound (0.1 mg/mL, 0.01 mg/mL, 0.001 mg/mL and 0.0001 mg/mL). All samples were prepared in DMSO and measured in a LC-HRMS (Agilent 1260 Infinity II).
Figure S1. Calibration curves of all active compounds (solubility studies) (1, 2, 9a, 9e, 10a-e) […]

Data set [10] addresses T9, MMP-7 (Homo sapiens, UniProt P09237).
T9 construct: the catalytic domains of the corresponding MMP were incubated in triplicate; purchased Enzo Life Science International, Inc
T9 sequence (P09237 95-267): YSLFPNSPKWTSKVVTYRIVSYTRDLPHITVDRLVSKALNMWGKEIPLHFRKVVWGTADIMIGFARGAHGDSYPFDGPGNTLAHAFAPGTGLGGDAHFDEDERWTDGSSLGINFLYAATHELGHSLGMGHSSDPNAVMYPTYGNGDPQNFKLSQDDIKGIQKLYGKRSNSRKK
More on the design: method as in PMID 30629065. Conditions: panel of MMPs; cited from earlier work.

Data set [11] addresses T10, MMP-9 (Homo sapiens, UniProt P14780).
T10 construct: the catalytic domains of the corresponding MMP were incubated in triplicate; purchased Enzo Life Science International, Inc
More on the design: method as in PMID 30629065. The following applies: panel of MMPs; cited from earlier work.

The target in data set [12] is T10, MMP-9. The data set is described as follows: MMP inhibition assay (MMP Inhibitor Profiling Kit, thiopeptide substrate), MMP-9. It is filed as biochemical. Conditions: panel of MMPs. The procedure: (§1) MMP activity measurements were performed using an MMP Inhibitor Profiling Kit purchased from Enzo Life Science International, Inc. (Farmingdale, NY, USA), and following the manufacturer’s protocol with slight modifications. Proteolytic activity was measured using a thiopeptide substrate (Ac-PLG-[2-mercapto-4-methylpentanoyl]-LG-OC2H5) where the MMP cleavage site peptide bond has been replaced by a thioester bond. Hydrolysis of this bond by MMPs produces a sulfhydryl group that reacts with DTNB to form 2-nitro-5-thiobenzoic acid, which was detected by its absorbance at 414 nm (microplate photometer 90 Thermo Scientific Multiscan FC).
(§2) Enzyme reactions were carried out at 37 °C in a 100 μL final volume of solutions, where the catalytic domains of the corresponding MMP were incubated in triplicate with at least seven concentrations of inhibitors. The assay buffer contained the following components: 50 mM HEPES, 10 mM CaCl2 95, 0.05% Brij-35, and 1 mM DTNB at pH 7.5. After addition of the substrate, the increase of absorbance was recorded in 1 min time intervals for 30 min. Data were plotted as OD versus time for each sample to obtain the reaction velocity (V) in OD per min. The percentage of residual activity for each compound was calculated using the following formula: % of remaining activity = (V in the presence of inhibitor/Vcontrol) × 100. […]

In data set [13] the target is T3, MMP-12. The data set is described as follows: MMP inhibition assay (MMP Inhibitor Profiling Kit, thiopeptide substrate), MMP-12. The format is biochemical. Conditions: panel of MMPs. As for the experimental part:
as §1, §2

Data set [14] has as its target T8, MMP-8. Put plainly: MMP inhibition assay (MMP Inhibitor Profiling Kit, thiopeptide substrate), MMP-8. The format is biochemical. The following applies: panel of MMPs. The procedure: as §1, §2
Data set [15] addresses T4, MMP-3. Put plainly: MMP inhibition assay (MMP Inhibitor Profiling Kit, thiopeptide substrate), MMP-3. The format is biochemical. The following applies: panel of MMPs. The procedure: as §1, §2
Data set [16] has as its target T7, MMP-14. The data set is described as follows: MMP inhibition assay (MMP Inhibitor Profiling Kit, thiopeptide substrate), MMP-14. Conditions: panel of MMPs. It is filed as biochemical. As for the experimental part:
as §1, §2

The target of data set [17] is T6, MMP-1. Put plainly: MMP inhibition assay (MMP Inhibitor Profiling Kit, thiopeptide substrate), MMP-1. It is filed as biochemical. Conditions: panel of MMPs. The procedure:
as §1, §2

The target in data set [18] is T9, MMP-7. Put plainly: MMP inhibition assay (MMP Inhibitor Profiling Kit, thiopeptide substrate), MMP-7. It is filed as biochemical. Conditions: panel of MMPs. As for the experimental part: as §1, §2
Data set [19] has as its target T2, MMP-10. Put plainly: MMP inhibition assay (MMP Inhibitor Profiling Kit, thiopeptide substrate), MMP-10. It is filed as biochemical. The following applies: panel of MMPs. As for the experimental part:
as §1, §2

Data set [20] concerns the target T1, MMP-2. The data set is described as follows: MMP inhibition assay (MMP Inhibitor Profiling Kit, thiopeptide substrate), MMP-2. Conditions: catalytic domain, 37 °C, pH 7.5. The format is biochemical. As for the experimental part: as §1
Enzyme reactions were carried out at 37 °C in a 100 μL final volume of solutions, where the catalytic domains of the corresponding MMP were incubated in triplicate with at least seven concentrations of inhibitors. The assay buffer contained the following components: 50 mM HEPES, 10 mM CaCl2 95, 0.05% Brij-35, and 1 mM DTNB at pH 7.5. After addition of the substrate, the increase of absorbance was recorded in 1 min time intervals for 30 min. Data were plotted as OD versus time for each sample to obtain the reaction velocity (V) in OD per min. The percentage of residual activity for each compound was calculated using the following formula: % of remaining activity = (V in the presence of inhibitor/Vcontrol) × 100. An inhibitor, NNGH, was included as a prototypic control inhibitor. IC50 calculations in MMP-13 and MMP-2 for active compounds are shown in Supplementary Materials (Figure S9)
The concentration of the compound that provided 50% inhibition of enzymatic activity (IC50) was determined by using semi-logarithmic dose–response plots (Graph Pad Prism 5.0 for Windows, Graph Pad Software Inc., San Diego, CA, USA, 2007).

Values after ≈ are worked out from the molar mass of the structure shown. Where two headings read alike, the source gives them in different places. Some results are limits rather than exact numbers.

T1 sequence (P08253 110-446 limits assumed): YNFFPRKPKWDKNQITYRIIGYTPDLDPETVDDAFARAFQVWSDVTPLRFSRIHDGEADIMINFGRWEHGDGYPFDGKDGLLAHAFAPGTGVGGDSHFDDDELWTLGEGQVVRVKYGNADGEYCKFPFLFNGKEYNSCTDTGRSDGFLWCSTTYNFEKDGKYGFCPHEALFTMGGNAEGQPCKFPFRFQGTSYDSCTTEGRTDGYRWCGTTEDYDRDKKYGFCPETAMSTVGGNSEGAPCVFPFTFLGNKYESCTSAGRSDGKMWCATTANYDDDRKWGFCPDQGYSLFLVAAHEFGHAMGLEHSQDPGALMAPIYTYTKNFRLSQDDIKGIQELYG
T4 sequence (P08254 100-272 limits assumed): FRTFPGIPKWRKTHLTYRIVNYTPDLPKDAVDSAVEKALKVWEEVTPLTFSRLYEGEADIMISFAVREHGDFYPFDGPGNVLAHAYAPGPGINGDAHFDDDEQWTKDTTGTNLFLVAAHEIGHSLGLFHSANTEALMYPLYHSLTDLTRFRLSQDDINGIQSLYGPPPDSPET
T3 sequence (P39900 106-263 limits assumed): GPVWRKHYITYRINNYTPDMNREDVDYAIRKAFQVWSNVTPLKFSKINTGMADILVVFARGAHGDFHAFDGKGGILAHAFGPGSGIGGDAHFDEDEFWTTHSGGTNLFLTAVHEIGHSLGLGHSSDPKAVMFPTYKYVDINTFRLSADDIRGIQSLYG
T10 sequence (P14780 107-444 limits assumed): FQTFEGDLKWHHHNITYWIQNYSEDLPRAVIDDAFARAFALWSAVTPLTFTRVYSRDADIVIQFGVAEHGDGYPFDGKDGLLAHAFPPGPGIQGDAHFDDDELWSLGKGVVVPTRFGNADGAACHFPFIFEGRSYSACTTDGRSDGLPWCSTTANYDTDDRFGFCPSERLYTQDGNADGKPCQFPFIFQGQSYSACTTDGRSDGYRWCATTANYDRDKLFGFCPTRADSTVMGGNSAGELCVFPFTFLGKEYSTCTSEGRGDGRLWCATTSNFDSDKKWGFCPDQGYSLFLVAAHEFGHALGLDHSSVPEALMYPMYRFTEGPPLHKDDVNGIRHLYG
T2 sequence (P09238 99-263 limits assumed): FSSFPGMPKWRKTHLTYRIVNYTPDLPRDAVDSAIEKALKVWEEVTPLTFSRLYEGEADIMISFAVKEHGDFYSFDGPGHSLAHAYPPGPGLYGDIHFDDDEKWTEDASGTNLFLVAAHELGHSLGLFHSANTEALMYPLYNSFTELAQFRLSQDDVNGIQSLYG
T8 sequence (P22894 100-262 limits assumed): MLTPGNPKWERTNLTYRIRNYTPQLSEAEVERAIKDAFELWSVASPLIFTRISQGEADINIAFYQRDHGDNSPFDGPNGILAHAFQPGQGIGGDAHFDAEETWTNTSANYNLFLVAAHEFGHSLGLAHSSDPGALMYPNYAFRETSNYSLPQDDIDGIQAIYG

On to `O=C(NO)[C@@H](Cc1ccccc1)NS(=O)(=O)c1ccc(-n2cc(CCn3nc4c(Br)c(Br)c(Br)c(Br)c4n3)nn2)cc1` [Compound 1], for which the IC50 is 70 nM in data set [1] (panel of MMPs, read-out: IC50 MMP-2); 70 nM in data set [1] (previous work, read-out: MMP-2 IC50); 434 nM in [2]; 17.8 nM in data set [3]; 500 nM in [4]; 3.7 nM in data set [5] (panel of MMPs, read-out: IC50 MMP-13). Further, the 50% inhibitory concentration (IC50) was 3.7 ± 1.85 nM in [5] (previous work, read-out: MMP-13 IC50); above 1000 nM in data set [6]; above 1000 nM in data set [7]; above 500 nM in [8]; above 1000 nM in data set [10]; above 500 nM in data set [11]. In addition, in [9], the solubility was 2.88 µM (≈ 2.45 µg/mL).

`O=C(NO)[C@@H](Cc1ccccc1)NS(=O)(=O)c1ccc(-n2cc(CCn3nc4ccccc4n3)nn2)cc1` [Compound 9a]: the 50% inhibitory concentration (IC50) in data set [12] was 500 ± 74 nM; in data set [13], 3.7 ± 2 nM; in [14], 100 ± 19 nM; in data set [15], 31 ± 8 nM; in [16], above 1000 nM; in data set [17], above 1000 nM. Moreover, the concentration for half-maximal inhibition (IC50) was 47 ± 21 nM in data set [18], 280 ± 22 nM in data set [19] and 3.42 ± 1.15 nM in [20]. Besides, the solubility in data set [9] is 9.77 µM (≈ 5.2 µg/mL).
